According to patent publication US11976311B2, “Method of adjusting the pH of a pretreatment solution using carbon dioxide useful for integrating saccharification and fermentation of a biomass” (National Technology & Engineering Solutions of Sandia, LLC, priority 2014, dated 2024):

What was measured:
[1] = pH of [Ch][Lys]/water systems and CO2-based pH adjustment; type: physicochemical
Description: With the increasing of CO2 pressure from 0 to 0.1 MPa, pH values of all [Ch][Lys]-water solutions decrease sharply from pH of […] to pH of 7-9. Further increasing CO2 pressure led to further pH drop. For 20 wt % [Ch][Lys]-water solution, a pH value of 7.2 was obtained at a CO2 pressure of around 2 MPa. However, only 0.7 MPa CO2 pressure is needed to drop the pH of 10 wt % [Ch][Lys]-water solution to 7.1. While, only 0.1 MPa CO2 pressure is needed to low the pH of the 5 wt % [Ch][Lys]-water solution to around 6.9, similar to or lower than the typical pressure deployed for carbonating a can of Soda. The process is reversible by increasing temperature or bubbling N2, driving out the CO2 and restoring the pH to its original value. In addition, a small fraction of alcohol (e.g. ethylene glycol) could be introduced for further enhancing CO2 absorption efficiency if necessary.^20
All the CO2 absorption experiments were carried out at room temperature in a 25 mL stainless steel Parr reactor (Parr instrument Co., USA) equipped with a magnetic stirrer plate and CO2 cylinder (>99.9% CO2 purity). In a typical procedure, 10 mL a certain concentration of [Ch][Lys] aqueous system was added into the Parr. After being sealed, the Parr was stirred at room temperature, and the absorption pressure was held constant by a backpressure valve. After the absorption was completed, the Parr was cooled to ambient temperature, and the remaining CO2 was removed slowly. Then, the corresponding pH value of the mixture was analyzed by Orion™ 3-Star Benchtop pH Meter. To elucidate the interaction between CO2 with side amine and terminal amine groups of [Ch][Lys] in H2O, we conducted ^13C nuclear magnetic resonance (NMR) analysis of [Ch][Lys] before and after CO2 absorption. Furthermore, two-dimensional (2D) […] heteronuclear single quantum coherence (HSQC) and heteronuclear multiple bond correlation (HMBC) nuclear magnetic resonance (NMR) analysis were also carried out on [Ch][Lys] before and after CO2 absorption.

[2] = system: Saccharomyces cerevisiae strain BY4741; experiment: Toxicity screen of ionic liquids on Saccharomyces cerevisiae strain BY4741; type: cell-based; details: 200 mM IL, SC medium containing 0.2% glucose, pH adjusted to 7 with hydrochloric acid if necessary
Protocol: Both choline, the cation precursor and lysine, the anion precursor are essential nutrients for microbial growth, which are known to be non-toxic and biodegradable. In this study, we carried out toxicity screen of 15 typical ILs including [Ch][Lys], [Ch][OAc] and imidazolium based ILs, [[…]][OAc] on Saccharomyces cerevisiae strain BY4741 at different IL concentrations of 25 and 200 mM (FIG. 2A-2B) in SC medium containing 0.2% glucose with the pH of the IL solution adjusted to 7 using hydrochloric acid if necessary. It aims to test whether the IL, [Ch][Lys] is compatible to commercial enzymes and biofuel producing microbes. As shown in FIG. 2A-2D, the microbial growth was completely jeopardized in a concentration of 200 mM ( 4.3 wt %) for most of the ILs.

[3] = system: CTec2+HTec2 (9:1, v/v) commercial enzyme mixtures; experiment: Compatibility of ILs with commercial enzyme mixtures (enzymatic hydrolysis of microcrystalline cellulose); type: biochemical; details: pH adjusted to 4.5 with hydrochloric acid
Protocol: (§1) In another set of pretreatment, switchgrass (100 mg, dry weight) was mixed with 5, 10, and 20% [Ch][Lys]-water solutions at a 10% biomass loading in a 15 ml capped glass pressure tube and pretreated at 140° C. for 1 h. After pretreatment, CTec2+HTec2 (9:1 v/v) mixture was directly added to the pretreatment slurry at 10 mg EP per g starting biomass for saccharification at the same conditions as stated above. In addition, microcrystalline cellulose (MCC) was hydrolyzed by 30 mg/g starting biomass for CTec2+HTec2, spiked with 0-30% IL.

[4] = system: commercial enzyme mixtures (CTec2+HTec2); experiment: Effect of acid-induced pH adjustment of 5% [Ch][Lys] solution on enzymatic hydrolysis of MCC; type: biochemical; details: for relative activities of enzymes on MCC: 5% [Ch][Lys] solution, pH adjusted with the named acid
Protocol: To enable a one-pot process, the pH mis-match must be adjusted to lower the pH of pretreatment slurry to a range suitable to enzymes and microbes. We tested a series of mineral and organic acids such as hydrochloric acid, phosphoric acid, sulfuric acid, acetic acid, citric acid, lactic acid, formic acid for the pH adjustment of 5% [Ch][Lys] solution.
as §1

SMILES: C[N+](C)(C)CCO.NCCCC[C@H](N)C(=O)[O-] [[Ch][Lys], cholinium lysinate]
- pH ([1]; 5 wt % [Ch][Lys]-water, 0.1 MPa CO2 pressure): around 6.9
- pH ([1]; 10 wt % [Ch][Lys]-water, 0.7 MPa CO2 pressure): 7.1
- pH ([1]; 20 wt % [Ch][Lys]-water, CO2 pressure around 2 MPa): 7.2
- pH ([1]; [Ch][Lys] or aqueous [Ch][Lys] solution during and after pretreatment): 12-14
- pH ([1]; all [Ch][Lys]-water solutions (5, 10, 20 wt %), CO2 pressure 0.1 MPa, room temperature): 7-9
- microbial growth [2]: no retard of microbial growth
- relative activity of enzymes (sugar yield from hydrolysis of microcrystalline cellulose) vs no-IL control ([3]; 5% IL): ~70%
- relative activity of enzymes (sugar yield from hydrolysis of microcrystalline cellulose) vs no-IL control ([3]; 10% IL): ~50%
- enzyme activity ([4]; 5% [Ch][Lys] solution without pH adjustment): very low

SMILES: O=C(O)CC(O)(CC(=O)O)C(=O)O [citric acid]
- relative activities of enzymes on MCC [4]: outperforms the other acids

SMILES: Cl [hydrochloric acid]
- relative activities of enzymes on MCC [4]: outperforms the other acids

SMILES: O=S(=O)(O)O [sulfuric acid]
- relative activities of enzymes on MCC [4]: outperforms the other acids
